Read-outs that look alike come from different tables or passages of the source.
Legend:
[1] = Tissue binding assay, plasma (equilibrium dialysis); type: in vitro ADME; settings: dialysis 4 hours at 37° C.
Method: [The source words this procedure for another target and reports this target under the same test.] Buffer preparation. A basic solution was prepared by dissolving 14.2 g/L Na2HPO4 and 8.77 g/L NaCl in deionized H2O. An acidic solution was prepared by dissolving 15.6 g/L NaH2PO4·2H2O and 8.77 g/L NaCl in deionized H2O. Using the acidic solution, the basic solution was then titrated to pH 7.4±0.1 and stored at 4° C. for up to 1 month. The stop solution was 100% CH3CN containing 200 ng/mL tolbutamide, 200 ng/mL labetalol and 50 ng/mL metformin.
Test method. Dialysis membrane strips were soaked in ultra-pure water at room temperature for ˜1 hour. Each membrane strip containing 2 membranes was separated and soaked in 20:80 EtOH/H2O (v/v) for ˜20 min, after which they were ready for use or were stored in the solution at 2-8° C. for up to 1 month. Prior to the experiment, the membrane was rinsed and soaked for 20 min in ultra-pure water. On the day of experiment, brain homogenate was thawed in a water bath at room temperature and incubated at 37° C. for 10 min before use. Test and control compounds were dissolved in DMSO to achieve 10 mM stock solutions. DMSO working solutions were prepared at 400 μM by diluting 10 μL of stock solution. To prepare the time zero (t=0) samples to be used for recovery determination, 50 μL aliquots of loading matrix were transferred in triplicate to the sample collection plate. The samples were immediately matched with opposite blank buffer to obtain a final volume of 100 μL of 1:1 matrix/dialysis buffer (v/v) in each well. 500 μL of stop solution were added to these t=0 samples. They were then stored at 2-8° C. pending further processes along with other post-dialysis samples. To load the dialysis device, an aliquot of 150 μL of the loading matrix was transferred to the donor side of each dialysis well in triplicate, and 150 μL of the dialysis buffer was loaded to the receiver side of the well. The dialysis plate was placed in a humidified incubator at 37° C. with 5% CO2 on a shaking platform that rotated slowly (about 100 rpm) for 4 hours. At the end of the dialysis, aliquots of 50 μL of samples were taken from both the buffer side and the matrix side of the dialysis device. These samples were transferred into new 96-well plates. Each sample was mixed with an equal volume of opposite blank matrix (buffer or matrix) to reach a final volume of 100 μL of 1:1 matrix/dialysis buffer (v/v) in each well. All samples were further processed by adding 500 μL of stop solution containing internal standards. The mixture was vortexed and centrifuged at 4000 rpm for about 20 min. An aliquot of 100 μL of supernatant of all the samples was then removed for LC-MS/MS analysis. The single blank samples were prepared by transferring 50 μL of blank matrix to a 96-well plate and adding 50 μL of blank PBS buffer to each well. Then the matrix-matched samples were further processed by adding 500 μL of stop solution containing internal standards, following the same sample processing method as the dialysis samples.
Data analysis. The % undiluted unbound, % undiluted bound and % recovery were calculated using the following equations:
% Undiluted Unbound=100*1/D/((1/(F/T)−1)+1/D)
% Undiluted Bound=100−% Undiluted Unbound
where F is the analyte concentration or peak area ratio of analyte/internal standard on the buffer (receiver) side of the membrane; T is the analyte concentration or peak area ratio of analyte/internal standard on the matrix (donor) side of the membrane; To is the analyte concentration or the peak area ratio of analyte/internal standard in the loading matrix sample at time zero; and D is the dilution factor determined as 4 in this assay.

[2] = PK brain permeability in C57BL/6 mice after single oral gavage; type: in vivo; settings: 2 hours post dose; for concentration at 2 h / Kpu,u (unbound brain/plasma partition coefficient) at 2 h: male, C57BL/6, mouse; for concentration at 2 h: po, 10 mg/kg; for Kpu,u (unbound brain/plasma partition coefficient) at 2 h / brain permeability (in words): oral 10 mg/kg; for Kpu,u (unbound brain/plasma partition coefficient) at 2 h: read-out: Kpu,u (unbound partitioning coefficient, Cb,u/Cp,u); for brain permeability (in words): comment on Table 3
Method: The distribution of compounds into the brain in vivo was determined in C57BL/6 mice following single oral (po) gavage administration.
Test compounds were formulated at 1 mg/mL in 0.5% HPMC E4 M, 0.2% Tween 80 in water to achieve solutions or homogenous suspensions suitable for po administration.
Formulations were administered to 3 male C57BL/6 mice at a volume of 10 mL/kg resulting in a dose level of 10 mg/kg. Blood samples were collected at 1 and 2 hours post dose into tubes containing K2EDTA as anticoagulant, processed to plasma and stored at −60° C. or lower until LC-MS/MS analysis. Brains were harvested 2 hours post dose, rinsed with saline, dried, weighed and homogenised under ice cold conditions. Brain homogenates were stored at −60° C. or lower until LC-MS/MS analysis.
Dose formulation concentrations were verified using a LC-UV or LC-MS/MS method. Test compound concentrations in plasma and brain homogenate were quantitatively determined using LC-MS/MS methods developed in individual matrices against calibration curves with QC samples included and acceptance criteria as per CRO SOPs. Concentrations in brain homogenate were corrected for the dilution factor used to prepare the homogenate to give concentrations in whole brain tissue.
Plasma and brain concentration versus time data were reported and plotted in excel. The brain to plasma ratio at 2 hours post dose was calculated for each animal using the following equation:
Brain:plasma=brain concentration (ng/g) at 2 h/plasma concentration (ng/mL) at 2 h
As only unbound test compound is available to exert an effect on the target, unbound plasma (Cp,u) and unbound brain (Cb,u) concentrations were calculated by correcting the total concentrations for the unbound fraction in plasma (fu,p) or brain (fu,b) determined from in vitro plasma protein or brain tissue binding assays using the following equations: […]
The unbound partitioning coefficient (Kpu,u) was then calculated based on the ratio of Cb,u to Cp,u using the following equation: […]
In these studies, mice were orally administrated a 10 mg/kg dose and sacrificed 2 hours post dose and tissue samples (brain homogenate and plasma) were analyzed subsequently as described above.

[3] = brain, read-out: total brain conc.
[4] = brain, total corrected for unbound fraction in brain, read-out: free brain conc.
[5] = plasma, read-out: total plasma conc.
[6] = plasma, total corrected for unbound fraction in plasma, read-out: free plasma conc.

Mouse plasma (% unbound) [1] | concentration at 2 h [2, 3] | concentration at 2 h [2, 4] | Kpu,u (unbound brain/plasma partition coefficient) at 2 h [2] | concentration at 2 h [2, 5] | concentration at 2 h [2, 6] | brain permeability (in words) [2] | SMILES
13.0 % unbound | 5510 nM | 3800 nM | 1.33 | 21900 nM | 2850 nM |  | Cc1cc(C(=O)N[C@H]2CC[C@H](NCC(F)(F)F)CC2)nc(-n2ccnc2)n1 [Example 1, 2-(1H-imidazol-1-yl)-6-methyl-N-((1r,4r)-4-((2,2,2-trifluoroethyl)amino)cyclohexyl)pyrimidine-4-carboxamide]
7.4 % unbound | 1660 nM | 224 nM | 0.48 | 6390 nM | 469 nM |  | O=C(N[C@H]1CC[C@H](NCC(F)F)CC1)c1cc(C2CC2)nc(-n2ccnc2)n1 [Example 3, 6-cyclopropyl-N-((1r,4r)-4-((2,2-difluoroethyl)amino)cyclohexyl)-2-(1H-imidazol-1-yl)pyrimidine-4-carboxamide]
10.6 % unbound | 5200 nM | 507 nM | 0.32 | 15100 nM | 1610 nM | excellent brain permeability | Cc1cc(C(=O)N[C@H]2CC[C@H](N3CCC(F)(F)C3)CC2)nc(-n2ccnc2)n1 [Example 10, N-((1r,4r)-4-(3,3-difluoropyrrolidin-1-yl)cyclohexyl)-2-(1H-imidazol-1-yl)-6-methyl-pyrimidine-4-carboxamide]
4.1 % unbound | 5470 nM | 197 nM | 0.4 | 11900 nM | 494 nM | excellent brain permeability | Cc1cc(C(=O)N[C@H]2CC[C@H](NC(C)(C)C(F)(F)F)CC2)nc(-n2ccnc2)n1 [Example 21, 2-(1H-imidazol-1-yl)-6-methyl-N-((1r,4r)-4-((1,1,1-trifluoro-2-methylpropan-2-yl)amino)cyclohexyl)pyrimidine-4-carboxamide]

SMILES | Mouse plasma (% unbound) [1] | concentration at 2 h [2, 3] | concentration at 2 h [2, 4] | Kpu,u (unbound brain/plasma partition coefficient) at 2 h [2] | concentration at 2 h [2, 5] | concentration at 2 h [2, 6] | brain permeability (in words) [2]
Cc1cc(C(=O)N[C@H]2CC[C@H](NCC(F)F)CC2)nc(-n2ccnc2)n1 [Example 2, N-((1r,4r)-4-((2,2-difluoroethyl)amino)cyclohexyl)-2-(1H-imidazol-1-yl)-6-methyl-pyrimidine-4-carboxamide] | 22.7 % unbound | 2190 nM | 1390 nM | 0.65 | 9370 nM | 2130 nM | 
